Series [1] is described as follows: Intrinsic dissolution profile as a function of pH. The format is physicochemical. The note with it: result in words; for pH dissolution profile: 0.1N HCl (pH 1), pH 4.5 acetate buffer, pH 6.8 phosphate buffer, water, 37° C.; for dissolution behavior at the low pH condition: 0.1N HCl. How it is done:
(§1) The opioid salts of the present invention were tested to determine their dissolution profile as a function of pH, and as a function of ethanol concentration in acidic media (dose dumping). To perform these experiments the buffered dissolution media and acidic ethanol solutions were prepared as identified herein, “Preparation of Solutions”. The test procedure was derived from the procedures cited in the United States Pharmacopeia and National Formulary (USP), numbers <1087> and <711>. The dose dumping procedure was adopted from the United States Food and Drug Administration's guidance regarding the dose dumping of oxymorphone. The sampling interval and regimen was defined and each sample analyzed by HPLC. Results from the HPLC analyses were plotted as a function of time and dissolution condition (FIG. 37 through FIG. 97 inclusive, and FIGS. 102-105, 109, 110, 114 and 115). This procedure was used to obtain the pH and dose dumping dissolution profiles disclosed herein. […] All activities within the procedure were conducted and executed for each of the compounds reported herein. Unless otherwise stated HPLC measurements were done and reported at ambient temperature and dissolution testing was done nominally at 37° C.
The following procedures were derived from USP <1087> Intrinsic Dissolution and USP <711> Dissolution methods, as well as manufacturer recommended procedures for use of the International Crystals Laboratories intrinsic dissolution disks.
(§2) The material which is to be subjected to dissolution is weighed using an analytical balance. 45.00-55 mg of the analyte was weighed and transferred to an International Crystals Laboratories fixed/static disk 316 stainless die with a 0.8 cm diameter die cavity. A hardened steel punch was then inserted into the cavity and the material was compressed at 2000 psi for 4-5 minutes using a bench top hydraulic press. The punch is then removed to expose the 0.5 cm^2 pellet surface. A Viton gasket is then placed around the threaded shoulder of the die and a polypropylene cap is threaded onto the die. This process can be repeated to generate as many pellets as is necessary for the experiment.
A Distek Dissolution System equipped with a model number TCS0200C temperature control system was filled with water and set to a temperature of 37.3° C. The vessel cavities were then equipped with four 1 L flat-bottomed Distek dissolution vessels. Four vessels were then filled with 500 mL of the following media: 0.1N HCl, pH 4.5 acetate buffer, pH 6.8 phosphate buffer, and USP grade water. The solutions were allowed to warm in the water bath for approximately 1 hour, but not exceeding 3 hours, or until the temperature of the media matched that of the water bath. Paddles were then mounted to the Distek stirring apparatus above the four dissolution vessels such that the distance between the paddle and the die face is 1 inch. The paddle speed is then set to 50 RPM.
The pellet prepared as described above was submerged into a vessel prepared as described above, with the pellet surface facing up (metal die up, polypropylene cap facing down). Forceps are used to aid this process so that the pellet apparatus can be gently placed into the bottom of the vessel. A timer is used to track the sampling intervals, and is started when the pellet is dropped into the solution. The lid to the dissolution apparatus is then lowered and the stirring apparatus is activated. Some planning is required in spacing out pellet drops such that each vessel can be sampled at the desired time intervals. Sampling is done by aspirating 10 mL of the solution using a Popper® Micro-Mate® Interchangeable Hypodermic Syringe equipped with a Vortex Pharma Group 10 micron cannula porous filter. This filter should be replaced after each use. Although sampling intervals can change from experiment to experiment, the following has been heavily utilized for the experiments described herein.

Series [2] in a line: Intrinsic dissolution dose dumping profile (ethanol concentration in acidic media, FDA protocol). The format is physicochemical. To be noted: for active released: in approximately sixty minutes; for release: 40% EtOH in 0.1N HCl; for dose dumping dissolution profile: 0.1N HCl with 0, 5, 20 and 40% ethanol; for dose dumping profile at the 5% ethanol condition: 5% ethanol in 0.1N HCl; for dose dumping profile at the 20% ethanol condition: 20% ethanol in 0.1N HCl.
Source text: A general overview of this concern may be found at http://www.fda.gov/ohrms/dockets/AC/05/slides/2005-4187S2—02_Hussain.ppt. This Oct. 26, 2005 overview presentation by the deputy director OPS/CDER of the FDA and entitled “Preventing Alcohol Induced Dose Dumping is a Desired Product Design Feature” describes the dose-dumping phenomenon. Dose dumping can be employed by those with the deliberate intention of abusing the drug, but may also occur during the normal/moderate consumption of alcohol while taking a prescribed medication. Simply, dose dumping is that condition “in which the complete dose may be more rapidly released from the dosage form than intended, creating a potential safety risk”. Clearly, with the opioid narcotics, dose dumping for the intention of experiencing the “high” or rush, may have severe, even deadly consequences. The presentation further categorizes the results from dose dumping testing as either vulnerable, rugged or uncertain. If the dissolution profile in the presence of alcohol accelerates the release of the active ingredient, the product is classified as vulnerable and would likely not receive FDA market approval. In contrast, a rugged product design is achieved when the dissolution profile of the drug substance, again in the presence of alcohol, is identical to or is available to a lesser extent as compared to the control. The testing regimen recommended within the FDA's draft guidance includes determining the dissolution profile in 0.1N HCl solutions wherein the sample is tested in the medium and at increasing levels of ethanol, specifically at 5, 20 and 40% alcohol.
as §1
The following procedures were derived from the FDA Draft Guidance for Oxymorphone Hydrochloride (recommended in November, 2007).
as §2, with “85.00-95.00” for “45.00-55”
A Distek Dissolution System equipped with a model number TCS0200C temperature control system, was filled with water and set to a temperature of 37.3° C. The vessel cavities were then equipped with four 1 L flat-bottomed Distek dissolution vessels.

The nature of series [3]: Modified dose dumping protocol: ethanol solutions in the absence of the 0.1N HCl media.

“Oxycodone Pamoate [polymorphic form of oxycodone pamoate]”: in series [1], the pH dissolution profile result was “essentially identical pH dissolution profile as the amorphous form”. Also, the active released entry in series [2] (0.1N HCl containing 5% EtOH) and in series [2] (0.1N HCl) was “about 70%” each time. In addition, in series [2] (20% EtOH in 0.1N HCl, reached in about 30 minutes), the “equilibrium solubility (release)” value is listed as roughly 10%. Also, the release entry in series [2] (after 3 hours) is given as “approximately 40%”; in series [2] (after about 80 minutes), roughly 10%.
Take “Amorphous Hydrocodone Pamoate Form I [amorphous Form I]”: the “dose dumping dissolution profile” value in series [2] (result in words) is on record as “somewhat erratic compared with Form II”.
For the molecule `COc1ccc2c3c1O[C@H]1C(=O)CC[C@@]4(O)[C@@H](C2)N(C)CC[C@]314.Cl` [oxycodone hydrochloride, reference compound], the pH dissolution profile entry in series [1] is reported as “immediate release (IR) characteristics”. Moreover, in series [2] (result in words), the “dose dumping dissolution profile” value is on record as “apparent solution equilibrium was obtained within minutes”. Moreover, the “dissolution in the control condition” value in series [2] (0.1 N HCl without EtOH, result in words) is recorded as “complete dissolution within minutes”. In addition, the “enhancement of the release profile by the acidic media” value in series [2] (at each ethanol level, comparing FIGS. 58 and 59) was “more than 20 % (absolute)”. Besides, the “amount of oxycodone extracted / opiate immediately released” value in series [3] (40% EtOH (about 80 proof), no 0.1N HCl) was “about 50%”.
In the case of “Amorphous Hydrocodone Pamoate Acetone Solvate [solvated amorphous form]”, in series [2] (result in words), the “dose dumping dissolution profile” value was “somewhat erratic compared with Form II”.
Take Polymorphic Hydrocodone Pamoate Form II: in series [1], the “dissolution behavior at the low pH condition” value was “slower release than Form I”. In series [2] (result in words), the “dose dumping profile at the 5% ethanol condition” value is given as “essentially identical to the 0.1N HCl condition” and the “dose dumping profile at the 20% ethanol condition” value is on record as “did not accelerate dose dumping”. The “dose dumping profile at the 40% ethanol condition” value in series [2] (40% ethanol in 0.1N HCl, result in words) is recorded as “did not promote dose dumping”.
In the case of `COc1ccc2c3c1O[C@H]1C(=O)CC[C@H]4[C@@H](C2)N(C)CC[C@]314.O=C(O)C(O)C(O)C(=O)O` [hydrocodone bitartrate, reference compound], in series [1], the pH dissolution profile result was “immediate release (IR) characteristics”. In series [2] (result in words), the “dose dumping dissolution profile” value is given as “exhibit dose dumping propensities”.
With “Oxycodone Pamoate [amorphous oxycodone pamoate]”, the “time to complete (full) release of the opiate” value in series [2] (0.1N HCl media, no EtOH) is listed as “about one”. Further, the “dose dumping dissolution profile” value in series [2] (result in words) is “no dose dumping benefit”. For the same molecule, the “dissolution profile as a function of ethanol concentration” value in series [3] (0.1N HCl with 0% EtOH, and 5, 20, 40% EtOH without acid, result in words) is “slow linear process”. In series [3] (40% EtOH, over about one hour), the opiate released result is recorded as “approximately 60%”. Besides, in series [3] (40% ethanol condition, FIG. 62), the “pamoate released (apparent pamoate equilibrium solubility)” value is “about 85%” and the “time to apparent pamoate equilibrium solubility” value is recorded as “approximately 45 minutes”.
With `CN(C)CCCN1c2ccccc2CCc2ccccc21.CN(C)CCCN1c2ccccc2CCc2ccccc21.O=C(O)c1cc2ccccc2c(Cc2c(O)c(C(=O)O)cc3ccccc23)c1O` [imipramine pamoate, reference compound], in series [2] (result in words), the “dose dumping dissolution profile” value is given as “exhibited dose dumping properties”.
Regarding Hydrocodone Xinafoate, the pH dissolution profile entry in series [1] was “extended release at pH 1, and independent release as the pH increases”.
On to Amorphous Hydrocodone Pamoate Form II, for which the “dissolution behavior at the low pH condition” value in series [1] was “ranks between that observed for Form I and the acetone solvated form”. For the same molecule, in series [2] (result in words), the “dose dumping profile at the 5% ethanol condition” value was “slow (and essentially identical) dissolution response” and the “dose dumping profile at the 20% ethanol condition” value is reported as “slow (and essentially identical) dissolution response”.
In the case of Oxycodone Xinafoate, the pH dissolution profile entry in series [1] is “poor dissolution profile at pH 1 with a gradual release as the pH increases”. The “dose dumping dissolution profile” value in series [2] (result in words) is given as “dose dumps immediately at the higher EtOH concentrations”.

These data come from patent publication US8329720B1 (Pisgah Laboratories, Inc., priority 2007, dated 2012).
